From ChEMBL document CHEMBL1201862, “PubChem BioAssay data set” (2004) come the findings set out here.

The structures appear in SMILES notation.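 48-hour exposure; five concentrations; linearly interpolated endpoints. At the GI50, growth is halved.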 Activity calls are given as the source filed them. Rule as the data show it: active = GI50 up to about 1.1 µM and inactive = higher. Some results are limits rather than exact numbers.

Some test systems named below: OVCAR-5; SNB-75; SF-295; HL-60; SR; CAKI-1; OVCAR-3; T47D; MCF7; 786-0; IGROV-1; HCT-15; MDA-MB-435; NCI-H226; UACC-62; HCT-116; K562; EKVX; Malme-3M.
Holding throughout (experiment): growth of human tumour cells (NCI), 48 h

In the case of `CCCc1cn2c(/C=N/NC(=N)N)c(-c3cc([N+](=O)[O-])c(Cl)cc3Cl)nc2s1`, the GI50 in the assay with OVCAR-5 was 1.75 µM (inactive); in the assay on SNB-75 it was 1.71 µM (inactive); with SF-295, 1.73 µM (inactive); with HL-60 it was 1.76 µM (inactive); in the assay with SR, 1.45 µM (inactive); in the assay on CAKI-1, 1.77 µM (inactive). Also, the GI50 in the assay with OVCAR-3 is 1.5 µM (inactive); in the assay on T47D it was 1.38 µM (inactive); in the assay with MCF7 it was 1.4 µM (inactive); with 786-0, 1.58 µM (inactive); in the assay on IGROV-1, 1.69 µM (inactive); in the assay on HCT-15, 1.66 µM. In addition, the GI50 with MDA-MB-435 was 1.8 µM (inactive); in the assay with NCI-H226, 1.82 µM (inactive); with UACC-62, 1.77 µM (inactive); with HCT-116, 1.32 µM (inactive); in the assay on K562, 1.23 µM (inactive).

For `CCCCCCSc1nc(COC(=O)NC)c(COC(=O)NC)n1C`, the GI50 in the assay on EKVX, with OVCAR-5, in the assay with SNB-75, with SF-295, in the assay on HL-60 and in the assay on SR was > 100 µM (inactive) in each case. The GI50 with CAKI-1, in the assay on OVCAR-3, in the assay on T47D, with MCF7, in the assay on 786-0 and in the assay on IGROV-1 was > 100 µM (inactive) each time. Also, the GI50 was greater than 100 µM in the assay on HCT-15; > 100 µM (inactive) with MDA-MB-435; > 100 µM (inactive) in the assay with NCI-H226; > 100 µM (inactive) in the assay on UACC-62; > 100 µM (inactive) with HCT-116; > 100 µM (inactive) in the assay with K562.

Turning to `Cc1nc2ccc(Br)cc2c(=O)n1-c1nnc(C(C)(C)C)s1`, the GI50 in the assay with EKVX, in the assay with OVCAR-5, in the assay on SNB-75, in the assay on SF-295, with HL-60 and in the assay on SR was > 10 µM (inactive) throughout. Besides, the GI50 in the assay with CAKI-1, with OVCAR-3, in the assay with T47D, in the assay with MCF7, in the assay on 786-0 and in the assay on IGROV-1 was > 10 µM (inactive) each time. Also, the GI50 in the assay on HCT-15 was greater than 10 µM; in the assay on MDA-MB-435 it was > 10 µM (inactive); with NCI-H226, > 10 µM (inactive); with UACC-62, > 10 µM (inactive); in the assay on HCT-116 it was > 10 µM (inactive); in the assay with K562, > 10 µM (inactive).

Consider `CC(=O)N1C(Nc2cnc3ccccc3c2)CCN1c1ccccc1` (centres undefined), for which the GI50 with EKVX was > 10 µM (inactive); with OVCAR-5, > 10 µM (inactive); in the assay with SNB-75, > 10 µM (inactive); with SF-295, > 10 µM (inactive); with HL-60, 6.37 µM (inactive); in the assay with Malme-3M, > 10 µM (inactive). Also, the GI50 in the assay on SR, in the assay on CAKI-1, in the assay with OVCAR-3, in the assay on T47D, in the assay on MCF7 and with 786-0 was > 10 µM (inactive) in each case. Moreover, the GI50 in the assay with IGROV-1 was > 10 µM (inactive); in the assay with HCT-15, greater than 10 µM; in the assay on MDA-MB-435, > 10 µM (inactive); in the assay on NCI-H226, > 10 µM (inactive); with HCT-116, > 10 µM (inactive); with K562, 6.58 µM (inactive).

Consider `CCCc1cc(O)c2c(C)c3[nH]c4ccc(Cl)cc4c3c(C)c2n1`, for which the GI50 with EKVX is 2.44 µM (inactive); with OVCAR-5, 2.46 µM (inactive); in the assay with SNB-75, 2.9 µM (inactive); with SF-295, 2.36 µM (inactive); in the assay with HL-60, 1.67 µM (inactive); in the assay with Malme-3M, 10.7 µM (inactive). Moreover, the GI50 in the assay with SR is 1.88 µM (inactive); with CAKI-1, 2 µM (inactive); in the assay with T47D it was 1.85 µM (inactive); with MCF7, 1.83 µM (inactive); with 786-0 it was 1.61 µM (inactive); with IGROV-1, 2.13 µM (inactive). Besides, the GI50 with HCT-15 is 1.69 µM; in the assay on MDA-MB-435 it was 1.6 µM (inactive); in the assay with NCI-H226, 2.81 µM (inactive); in the assay with HCT-116, 1.63 µM (inactive).

For the compound `Cc1cccc(Nc2nc(NNC(=O)Cc3ccccc3)nc(NNC(=O)c3ccncc3)n2)c1`, the GI50 in the assay with EKVX, with SNB-75, in the assay on SF-295, in the assay on HL-60, in the assay on Malme-3M and in the assay on SR was > 10 µM (inactive) each time. Further, the GI50 was > 10 µM (inactive) in the assay on CAKI-1; > 10 µM (inactive) in the assay on T47D; > 10 µM (inactive) with MCF7; > 10 µM (inactive) in the assay on 786-0; > 10 µM (inactive) with IGROV-1; greater than 10 µM in the assay with HCT-15. Besides, the GI50 in the assay on MDA-MB-435, with NCI-H226, in the assay with UACC-62 and with HCT-116 was > 10 µM (inactive) throughout.

In the case of `CC(C)(C)OC(=O)[N+](=N)C(=O)C1CCC(=O)N1C(=O)OCc1ccccc1` (centres undefined), the GI50 in the assay on EKVX, in the assay with OVCAR-5, in the assay on SNB-75, with SF-295, in the assay with HL-60 and in the assay with Malme-3M was > 100 µM (inactive) each time. The GI50 with SR, in the assay on CAKI-1, with OVCAR-3, in the assay on T47D, with MCF7 and in the assay on 786-0 was > 100 µM (inactive) in each case. The GI50 with IGROV-1 is > 100 µM (inactive); in the assay with MDA-MB-435, 86.7 µM (inactive); in the assay on NCI-H226, > 100 µM (inactive); in the assay on UACC-62, > 100 µM (inactive); in the assay with HCT-116, > 100 µM (inactive); with K562, > 100 µM (inactive).

Consider `Oc1c2cc(Br)cc1CCc1cc(Br)cc(c1O)CC2`, for which the GI50 in the assay on OVCAR-5 was 23.2 µM (inactive); with SNB-75, 21.6 µM (inactive); in the assay with SF-295 it was 18.3 µM (inactive); with HL-60 it was 15.7 µM (inactive); in the assay with Malme-3M it was 28.8 µM (inactive); in the assay with SR it was < 0.01 µM (active). The GI50 in the assay with CAKI-1 is 36 µM (inactive); in the assay on OVCAR-3, 20.2 µM (inactive); with T47D, 38.8 µM (inactive); in the assay on MCF7, 22.3 µM (inactive); in the assay with 786-0 it was 30.2 µM (inactive); in the assay with IGROV-1 it was 38.2 µM (inactive). Besides, the GI50 was 30.5 µM in the assay with HCT-15; 29.2 µM (inactive) in the assay with MDA-MB-435; 16.3 µM (inactive) with NCI-H226; 18.6 µM (inactive) in the assay on UACC-62; 15.1 µM (inactive) in the assay on HCT-116; 20.2 µM (inactive) in the assay on K562.
